Data: patent US20240392383A1, “Cancer biomarkers for susceptibility to treatment by almitrine” (priority 2021, published 2024)
Like-named read-outs stand apart in the source and are kept apart here.

How the values were obtained:
[1] = system: CML; test: Anti-CML activity; assay type: cell-based; conditions: almitrine (or salt, solvate, hydrate, prodrug) and imatinib/dasatinib/nilotinib/radotinib/bosutinib/ponatinib; anticipated by the teaching of this disclosure
[2] = system: NCI-60; conditions: NCI-60 testing; comparators e.g. carboplatin; reported in previous applications WO2019/012149A1; cited from earlier work
[3] = intravenous 459±155 mg almitrine dimesylate infused within 24 hours [16], cited from earlier work
[4] = system: NCI-60 cancer cell lines; test: CellMiner gene expression correlated with growth inhibition (%) at 10 μM (mean of NCI 1-dose and 5-dose protocols); assay type: cell-based, human
Description: Correlations first found using NCI COMPARE, with the aforementioned method, were then further corroborated using cancer gene expression data sourced from the CellMiner database. Indeed, the following NCI 1-dose and 5-dose anti-cancer data for almitrine dimesylate, with serial codes given that will be used to refer to each hereafter, was compared with cancer gene expression data sourced from CellMiner:
The CellMiner database includes five independent Human Genome gene expression data sets {accession numbers: GSE5949, GSE5720, GSE32474, GSE29682, GSE29288}, each of which can have multiple different transcript sequence probes for a single gene, wherein the mean expression for each gene was taken: within and across the different databases, which is distinct from NCI COMPARE where all expressions of different sequence transcripts for a gene were kept distinct without any averaging, and where there was no averaging across gene expression data sets, each was kept distinct. Although actually only four of these gene expression data sets in CellMiner were used to generate the mean for each gene expression: the single gene expression data set that used an Agilent instead of an Affymetrix microarray chip (GSE29288) was excluded from the mean because, to quote the CellMiner documentation: “Agilent probe(s) values are removed from cell line average intensity calculation due to normalization inconsistency with Affymetrix probesets”. […] So, the data set sourced from an Agilent microarray chip was not incorporated in the mean, but was instead used by itself separately for an independent verification. With much less data, the Agilent set is much less reliable than the mean of the 4 Affymetrix microarray data sets, but it is a nice independent adjudicator. This Agilent data set is not one of the six gene expression data sets at NCI COMPARE. By contrast, there is some overlap in the 4 CellMiner gene expression databases that were used for the mean and the 6 that were used with NCI COMPARE (some might be the same). […] Also, distinctly with the 4 Affymetrix microarray data sets in CellMiner, the mean expression for each gene was taken: averaging the expression of all the different sequence transcripts, across all the 4 used Affymetrix microarray data sets, for each gene. Moreover, this mean is very heavily weighted to a database that CellMiner has, and NCI COMPARE definitely doesn't, Accession number: GSE29682, because it tends to have many more probes for each gene than any other data set, indeed often more than all the others combined, each of which is an additional data point in the mean for each gene. […]

[5] = cited from earlier work
[6] = reason for not being suitable for in vivo use [18]; cited from earlier work
[7] = system: CML; conditions: cited from earlier work
[8] = system: AML cells; conditions: cited from earlier work
[9] = target: MYC/Max (Homo sapiens, UniProt P01106); conditions: cited from earlier work
Chain of MYC/Max (P01106 whole entry): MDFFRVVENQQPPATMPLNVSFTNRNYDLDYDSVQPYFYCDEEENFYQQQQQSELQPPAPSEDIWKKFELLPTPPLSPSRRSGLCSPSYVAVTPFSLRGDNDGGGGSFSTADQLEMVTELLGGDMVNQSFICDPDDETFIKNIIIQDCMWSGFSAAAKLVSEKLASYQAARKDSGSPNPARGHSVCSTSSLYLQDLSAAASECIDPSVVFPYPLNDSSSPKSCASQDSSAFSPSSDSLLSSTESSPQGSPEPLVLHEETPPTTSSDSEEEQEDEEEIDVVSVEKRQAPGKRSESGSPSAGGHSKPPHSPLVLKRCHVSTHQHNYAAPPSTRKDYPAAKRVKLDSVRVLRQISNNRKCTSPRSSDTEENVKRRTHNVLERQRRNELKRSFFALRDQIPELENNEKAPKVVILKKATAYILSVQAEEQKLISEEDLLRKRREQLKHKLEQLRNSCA

C=CCNc1nc(NCC=C)nc(N2CCN(C(c3ccc(F)cc3)c3ccc(F)cc3)CC2)n1 [almitrine]
Anti-CML activity in combination [1]: synergistic anti-CML activity

C=CCNc1nc(NCC=C)nc(N2CCN(C(c3ccc(F)cc3)c3ccc(F)cc3)CC2)n1 [almitrine dimesylate]
Anti-cancer activity compared with present cancer drugs [2]: greater anti-cancer activity than many present cancer drugs
Adverse effect ([3]; subjects with normal liver function): without any adverse effect
Blood [lactate] ([3]; subjects with poor/impaired liver function): can potentially increase blood [lactate]
Anti-cancer activity vs SCAF11 minus RAPH1 gene expression (FIG. 1A bottom panel) ([4]; SCAF11 gene expression minus RAPH1 gene expression, CellMiner data): greater against cancers with greater value of SCAF11 gene expression minus RAPH1 gene expression
Susceptibility to anti-cancer activity vs MYC oncogene expression (FIG. 1C) ([4]; gene MYC, CellMiner data): the more likely it is susceptible
Anti-cancer activity vs RAPH1 gene expression (FIG. 1A middle panel) ([4]; gene RAPH1, CellMiner Affymetrix, Agilent and RNA-seq data): less against cancers with greater gene expression of RAPH1
Anti-cancer activity vs SCAF11 gene expression (FIG. 1A upper panel) ([4]; gene SCAF11, CellMiner Affymetrix, Agilent and RNA-seq data): greater against cancers with greater gene expression of SCAF11
Side-effects in humans compared with present cancer drugs ([5]; humans): less, close to no, side-effects
Reversibility of side-effects ([5]; if side-effects occur [2]): reversible upon stopping the course in nearly all cases
Side-effects ([5]; patients taking it daily for <11 months): no side-effects in nearly every patient
Side-effects ([5]; patients taking it daily for >11 months to years [2]): side-effects in a very small minority of the many patients

CCc1ccc(/C=C2/SC(=S)NC2=O)cc1 [10058-F4]
Degradation [6]: fast degradation
Anti-cancer activity in combination ([7]; 10058-F4 and imatinib [26]): synergistic anti-cancer activity
Anti-CML activity [7, 26]: exerts anti-CML activity
Drug resistance of leukemic cells ([8]; AML, Myc inhibition [39]): can overcome drug resistance
Differentiation of AML cells [8, 42]: causes AML cells to differentiate
Apoptosis of AML cells ([8]; at higher concentrations [42]): induces their apoptosis
MYC/Max heterodimerization [9, 18]: does disrupt MYC/Max heterodimerization
Affinity for target ([9]; target MYC [18]): low affinity for target
